Data on 5 substances can be found in US10227380B2, “Triazole-crosslinked and thioether-crosslinked peptidomimetic macrocycles” (AILERON THERAPEUTICS, INC., priority 2012, dated 2019).

Broadly, the EC50 is the concentration that produces a half-maximal response. For orientation: Ki means the equilibrium dissociation constant of an inhibitor or competing ligand from its target. A lower Ki goes with tighter binding.

Bridge positions count the residues as written; N and C are the ends. Square brackets hold non-standard residues; d marks the D form. * marks the point of attachment. 5FAM = O=C1OC2(c3ccc(O)cc3Oc3cc(O)ccc32)c2ccc(C(=O)*)cc21; Cba = N[C@@H](CC1CCC1)C(=O)O; βAla = NCCC(=O)O

In one test the test system is SJSA-1 cells. In words: Cell Viability Assay (MTT), SJSA-1. It counts as cell-based. The conditions noted are these: read-out: SJSA-1 EC50 (72 h).
The next test has as its target T1, MDMX (Homo sapiens, UniProt O15151).
T1 sequence (O15151 1-125): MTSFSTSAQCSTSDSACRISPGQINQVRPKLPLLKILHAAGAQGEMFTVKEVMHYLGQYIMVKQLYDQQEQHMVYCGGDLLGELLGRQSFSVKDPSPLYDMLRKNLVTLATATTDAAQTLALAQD
In words: Competitive Fluorescence Polarization Assay for MDMX. In kind it is binding. The method, then: Competitive Fluorescence Polarization Assay for MDMX
The assay is performed according to the following general protocol: • 1. Dilute MDMX (In-house, 40 kD) into FP buffer (High salt buffer-200 mM Nacl, 5 mM CHAPS, pH 7.5.) to make 300 nM (2×) working stock solution. 2. Add 20 μl of 300 nM (2×) of protein stock solution into each well of 96-well black HE microplate (Molecular Devices) • 3. Dilute 1 mM (in 100% DMSO) of FAM labeled linear peptide with DMSO to 100 μM (dilution 1:10). Then, dilute from 100 μM to 10 μM with water (dilution 1:10) and then dilute with FP buffer from 10 μM to 40 nM (dilution 1:250). This is the working solution which will be a 10 nM concentration in well (dilution 1:4). Keep the diluted FAM labeled peptide in the dark until use. • 4. Make unlabeled peptide dose plate with FP buffer starting with 5 μM (final) of peptide and making 5 fold serial dilutions for 6 points using following dilution scheme. • 5. Dilute 10 mM (in 100% DMSO) with DMSO to 5 mM (dilution 1:2). Then, dilute from 5 mM to 500 μM with H2O (dilution 1:10) and then dilute with FP buffer from 500 μM to 20 μM (dilution 1:25). Making 5 fold serial dilutions from 20 μM (4×) for 6 points. • 6. Transfer 10 μl of serial diluted unlabeled peptides to each well which is filled with 20 μl of 300 nM of protein. • 7. Add 10 μl of […] of FAM labeled peptide into each well and incubate for 3 hr to read. […]
A general note: In fluorescence polarisation assays a small probe gives low polarisation when free and higher when bound to something large.

The next test has as its target MDM2 (Homo sapiens, UniProt Q00987). In words: Competitive Fluorescence Polarization Assay for MDM2. It counts as binding. Here is the method:
Competitive Fluorescence Polarization Assay for MDM2
The assay is performed according to the following general protocol: • 1. Dilute MDM2 (In-house, 41 kD) into FP buffer (High salt buffer-200 mM Nacl, 5 mM CHAPS, pH 7.5) to make 84 nM (2×) working stock solution. • 2. Add 20 μl of 84 nM (2×) of protein stock solution into each well of 96-well black HE microplate (Molecular Devices) • 3. Dilute 1 mM (in 100% DMSO) of FAM labeled linear peptide with DMSO to 100 μM (dilution 1:10). Then, dilute from 100 μM to 10 μM with water (dilution 1:10) and then dilute with FP buffer from 10 μM to 40 nM (dilution 1:250). This is the working solution which will be a 10 nM concentration in well (dilution 1:4). Keep the diluted FAM labeled peptide in the dark until use. • 4. Make unlabeled peptide dose plate with FP buffer starting with 1 μM (final) of peptide and making 5 fold serial dilutions for 6 points using following dilution scheme. • Dilute 10 mM (in 100% DMSO) with DMSO to 5 mM (dilution 1:2). Then, dilute from 5 mM to 500 μM with H2O (dilution 1:10) and then dilute with FP buffer from 500 μM to 20 μM (dilution 1:25). Making 5 fold serial dilutions from 4 μM (4×) for 6 points. • 5. Transfer 10 μl of serial diluted unlabeled peptides to each well which is filled with 20 μl of 84 nM of protein. • 6. Add 10 μl of […] of FAM labeled peptide into each well and incubate for 3 hr to read. […]

MDM2, sequence (Q00987 1-125): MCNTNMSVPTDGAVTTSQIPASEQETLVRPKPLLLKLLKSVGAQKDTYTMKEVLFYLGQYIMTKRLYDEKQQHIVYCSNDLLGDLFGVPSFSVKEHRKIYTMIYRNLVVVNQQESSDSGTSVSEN
Description for SJSA-1 cells: The assay is performed according to the following general protocol: • Cell Plating: Trypsinize, count and seed cells at the pre-determined densities in 96-well plates a day prior to assay.
Add 180 μL of the assay media per well. Control wells with no cells, receive 200 μl media.
Peptide dilution: all dilutions are made at room temperature and added to cells at room temperature. • Prepare 10 mM stocks of the peptides in DMSO. Serially dilute the stock using 1:3 dilution scheme to get 10, 3.3, 1.1, 0.33, 0.11, 0.03, 0.01 mM solutions using DMSO as diluents. […] Also prepare DMSO/sterile water (3% DMSO) mix for control wells. • Thus the working stocks concentration range μM will be 300, 100, 30, 10, 3, 1, 0.3 and 0 μM. […] H1-H3 will receive 20 ul of assay media. H4-H9 will receive 20 ul of 3% DMSO-water vehicle. […] Nutlin was diluted using the same dilution scheme as peptides.
(20 μl of 300 μM peptide+180 μl of cells in media=30 μM final concentration in 200 μl volume in wells). Mix gently a few times using pipette. […] Viability of SJSA-1, RKO, RKO-E6, HCT-116 cells is determined on day 3, MCF-7 cells on day 5 and SW-480 cells on day 6. At the end of designated incubation time, allow the plates to come to room temperature. Remove 80 μl of assay media from each well. Add 15 μl of thawed MTT reagent to each well. • Allow plate to incubate for 2 h at 37° C. in humidified 5% CO2 atmosphere and add 100 μl solubilization reagent as per manufacturer's protocol.

Regarding “452 (Ac-LTF[Alpha‑Me R‑azide 1,5 triazole (6 carbon) alanine]AYWAQL[Alpha‑Me alkyne 1,5 triazole (5 carbon) alanine]AAAAA[dA]-NH2; triazole 4-11; not fully specified; printed as Ac-LTF$5rn6AYWAQL$5a5AAAAAa-NH2) [compound 452]”, the EC50 with SJSA-1 cells is over 30 µM.
Same read-out and setting: the result for “461 (5FAM-[βAla]LTF[Alpha‑Me R‑azide 1,4 triazole (6 carbon) alanine]EYWAQ[Cba][Alpha‑Me alkyne 1,4 triazole (5 carbon) alanine]SAA-NH2; triazole 5-12; not fully specified) [compound 461]” reads 5 to 15 µM; that for “463 (5FAM-[βAla]LTF[Alpha‑Me R‑azide 1,5 triazole (6 carbon) alanine]EYWAQ[Cba][Alpha‑Me alkyne 1,5 triazole (5 carbon) alanine]SAA-NH2; triazole 5-12; not fully specified) [compound 463]”, 15 to 30 µM; that for “464 (5FAM-[βAla]LTA[Alpha‑Me R‑azide 1,5 triazole (6 carbon) alanine]EYWAQ[Cba][Alpha‑Me alkyne 1,5 triazole (5 carbon) alanine]SAA-NH2; triazole 5-12; not fully specified) [compound 464]”, over 30 µM.
With “466 (LTFAEYWAQAASAA; not fully specified; stapled, Ac, NH2, Cba5Prp; N-term Ac; MOD_RES (4)..(4): Alpha-Me R-azide 1,4 triazole (6 carbon) alanine olefin amino acid connected by an all-carbon crosslinker comprising one double bond; misc_feature (4)..(11): Crosslink between residues; MOD_RES () [compound 466]”, the Ki with MDMX and with MDM2 was under 0.01 µM throughout.
